Results reported in the OPERA property sets (Mansouri et al. 2018).

Conditions: for log10 BCF / log10 biotransformation half-life (days): fish

| Structure (SMILES) | boiling point [°C] | melting point [°C] | other results |
| --- | --- | --- | --- |
| CCOC(=O)c1ccccc1[N+](=O)[O-] | 275 | 30 |  |
| C=C(C)CCC=C(C)C | 143 | -70 |  |
| N#Cc1ccc([N+](=O)[O-])cc1 |  | 148 |  |
| c1ccc(CN(Cc2ccccc2)Cc2ccccc2)cc1 | 385 | 91.5 |  |
| C=C1C/C(=C/C)C(=O)O[C@@H]2CCN3CC=C(COC(=O)[C@]1(C)O)[C@H]23 |  | 218 |  |
| O=[N+]([O-])c1ccc(Cl)c(C(F)(F)F)c1 | 232 | 22 |  |
| CCc1cccc(O)c1 | 218 | -4 | log10 Henry constant (atm·m³/mol): -6.2; log10 vapour pressure (mmHg): -1.3; ready biodegradability: readily biodegradable |
| Nc1c(Cl)c(F)nc(OCC(=O)O)c1Cl |  | 232 | log10 vapour pressure (mmHg): -10.5 |
| Cc1ccc(O)c(-n2nc3ccccc3n2)c1 |  | 132 |  |
| NC(=O)c1ccccc1OCC(=O)O |  | 221 |  |
| CCCCCCOc1ccc(O)cc1 |  | 46 |  |
| CCC(C)(C)S | 99.1 |  | log10 vapour pressure (mmHg): 1.68 |
| CC(C)C(c1ccccc1)C(C)C | 221 | -24.5 |  |
| NC(=O)CF |  | 108 |  |
| C[C@@H]1NC(=O)N[C@@H]1CCCCCC(=O)O |  | 157 |  |
| Cc1ccc(C(=O)O)cc1 |  | 180 | log10 Koc (L/kg): 1.77; log10 vapour pressure (mmHg): -4.29; ready biodegradability: readily biodegradable |
| C=CC(=O)OCCn1c(=O)n(CCOC(=O)C=C)c(=O)n(CCOC(=O)C=C)c1=O |  |  | ready biodegradability: not readily biodegradable |
| O=[N+]([O-])c1c(O)c(Cl)cc(Cl)c1Cl |  | 92.5 |  |
| COC(=O)CBr | 132 |  |  |
| CC=CCCC |  |  | ready biodegradability: not readily biodegradable |
| CC1CC(C)(C)CC(OOC(C)(C)C)(OOC(C)(C)C)C1 (configuration not stated) |  | -30 | ready biodegradability: not readily biodegradable; log10 BCF: 3.96 |
| CC(=O)COC(C)=O | 171 |  |  |
| O=COCC=Cc1ccccc1 | 252 | 0 |  |
| O=C(O)C(=O)Nc1ccccc1 |  | 150 |  |

| Structure (SMILES) | boiling point [°C] | melting point [°C] | other results |
| --- | --- | --- | --- |
| C[C@]12C=CC(=O)C=C1CC[C@@H]1[C@@H]2CC[C@]2(C)OC(=O)CC[C@@H]12 |  | 218 |  |
| CCCCOC(=O)C(C)C | 155 |  |  |
| CCCCCCCOCCCCCCC | 258 |  |  |
| Oc1ccc(Br)cc1 |  |  | log10 Koc (L/kg): 2.41; ready biodegradability: not readily biodegradable; log10 BCF: 1.17 |
| Cc1cc(C)c(O)c(C)c1C | 240 | 80.5 |  |
| C=C1/C(=C/C=C2/CCC[C@]3(C)[C@@H]([C@H](C)CCCC(C)C)CC[C@@H]23)C[C@@H](O)C[C@@H]1O |  | 136 |  |
| COCBr | 87 |  |  |
| C#CCC(C)C | 61.2 | -105 |  |
| CCC(C)c1ccccc1 (configuration not stated) | 174 | -82.7 | log10 vapour pressure (mmHg): 0.243 |
| C[C@]12CCc3c(ccc4cc(O)ccc34)[C@@H]1CCC2=O |  | 258 |  |
| OCCC1CCCC1 | 183 |  |  |
| O=C(Nc1ccc(Cc2ccc(NC(=O)N3CC3)cc2)cc1)N1CC1 |  |  | ready biodegradability: not readily biodegradable |
| Oc1c(Cl)c(Cl)cc(Cl)c1Cl |  | 115 | log10 BCF: 2.15; log10 biotransformation half-life (days): -0.1 |
| Clc1ccccc1-c1c(Cl)ccc(Cl)c1Cl |  |  | log10 biotransformation half-life (days): 2.38 |
| Cc1ccc(O)c(C(C)C)c1 | 228 | 36.5 |  |
| CCC(C)(C)c1ccc(O)c(C(C)(C)CC)c1 |  | 25 | ready biodegradability: not readily biodegradable |
| CCOC(=O)C1=C(C)NC(C)=C(C(=O)OCC)C1 |  | 180 |  |
| Cc1cccc2ccc3ccccc3c12 |  | 53.5 |  |
| CC(=O)c1cc(C)c(C)cc1C | 246 | 10.5 |  |
| CCOC(=O)CCC(C)=O | 206 |  | log10 vapour pressure (mmHg): -0.682 |
| COc1c(Cl)c(Cl)c(O)c(Cl)c1Cl |  | 116 |  |
| Clc1ccc(-c2cc(Cl)c(Cl)c(Cl)c2)cc1Cl |  |  | log10 Koa: 10.3; log10 biotransformation half-life (days): 2.4 |
| Clc1ccc(-c2cc(Cl)c(Cl)c(Cl)c2Cl)cc1Cl |  |  | log10 vapour pressure (mmHg): -5.79; log10 biotransformation half-life (days): 2.73 |
| COC(=O)[C@@H](C)N(C(=O)c1ccccc1)c1ccc(F)c(Cl)c1 |  |  | log10 vapour pressure (mmHg): -5.12 |

| Structure (SMILES) | boiling point [°C] | melting point [°C] | other results |
| --- | --- | --- | --- |
| CCCCCCCCCCCCC/C=C/[C@@H](O)[C@@H](N)CO |  | 67 |  |
| C1=NN(c2ccccc2)CC1 | 273 | 52 |  |
| CCCCCCCCCCCCC(CCCCCCCCCCC)CCCCCCCCCCCC |  | 9.7 |  |
| CCCCC(=O)OCC(C)C | 179 |  |  |
| CCCCCCCCCCCCCCCCCCCCCCCCCC(=O)OC |  | 63.8 |  |
| CCOC(=O)c1ccc(F)cc1 | 210 | 26 |  |
| CCCCOC(C)=O | 126 |  | log10 Henry constant (atm·m³/mol): -3.55; log10 Koa: 3.65; log10 vapour pressure (mmHg): 1.06; ready biodegradability: readily biodegradable |
| Clc1nc(Cl)nc(Nc2ccccc2Cl)n1 |  | 160 | log10 Koc (L/kg): 3; log10 vapour pressure (mmHg): -8.21 |
| O=C([O-])c1ccccc1.[NH4+] |  | 194 |  |
| BrCC(CBr)(CBr)CBr | 306 | 163 | ready biodegradability: not readily biodegradable; log10 BCF: 1.94; log10 biotransformation half-life (days): 0.76 |
| COC(=O)c1ccc(O)cc1O |  | 120 |  |
| CCCOc1cc(N)ccc1C(=O)OCCN(CC)CC.Cl |  | 149 |  |
| O=C(Nc1ccccc1)c1cc(Cl)ccc1O |  | 211 |  |
| CNC1(c2ccccc2Cl)CCCCC1=O (configuration not stated) |  | 92.5 |  |
| CC(C)(C)ON=O | 63 |  |  |
| CNc1ccc(C)cc1 | 210 |  |  |
| CCCCC(CC)CCC(=O)CC(C)C (configuration not stated) | 252 |  |  |
| CC(C)(OO)c1ccccc1 |  | -9 | log10 vapour pressure (mmHg): -2.49; ready biodegradability: not readily biodegradable |
| O=CCCCC=O |  |  | log10 vapour pressure (mmHg): -0.222 |
| CC(=O)OCCOCCOC(C)=O | 200 | 18 |  |
| Nc1ccc(S(=O)(=O)NCc2ccccc2)cc1 |  | 171 |  |
| OCCCCCCCCCCF |  | 22 |  |
| NC(=O)c1ncccc1O |  | 195 |  |
| O=C(O)C(Cc1cc(I)c(O)c(I)c1)c1ccccc1 (configuration not stated) |  | 164 |  |

| Structure (SMILES) | boiling point [°C] | melting point [°C] | other results |
| --- | --- | --- | --- |
| c1ccc2c(c1)oc1ccccc12 | 287 | 86.5 | log10 Koc (L/kg): 3.91; log10 vapour pressure (mmHg): -2.61; ready biodegradability: readily biodegradable; log10 BCF: 3.18; log10 biotransformation half-life (days): 1.35 |
| C[C@]12CC[C@H](O)C[C@H]1CC[C@@H]1[C@@H]2CC[C@]2(C)[C@@H](C3=CC(=O)OC3)CC[C@]12O |  | 253 |  |
| Clc1cc(-c2c(Cl)c(Cl)c(Cl)c(Cl)c2Cl)c(Cl)c(Cl)c1Cl |  |  | log10 biotransformation half-life (days): 2.68 |
| CC[C@H]1OC(=O)[C@H](C)[C@@H](O[C@@H]2O[C@H](C)C[C@H](N(C)C)[C@H]2O)[C@@H](C)C[C@@H](C)C(=O)C=C[C@]1(C)O |  | 196 |  |
| c1ccc(OP(Oc2ccccc2)Oc2ccccc2)cc1 | 360 | 25 |  |
| COC(=O)c1ccccc1[N+](=O)[O-] | 275 | -13 |  |
| CN(C)c1ccc(/N=N/c2ccccc2C(=O)O)cc1 |  | 183 |  |
| CCCCN(C)C | 95 |  |  |
| COc1c(Br)cc(Br)cc1Br | 298 | 88 |  |
| Brc1ccc(Br)s1 | 210 | -6 |  |
| CC1CC(C)C(C)C1 (configuration not stated) | 117 | -132 |  |
| c1ccc2c(c1)sc1ccccc12 | 332 | 97 | log10 Koc (L/kg): 4.05; log10 biodegradation half-life (days): 1.56; log10 vapour pressure (mmHg): -3.69; ready biodegradability: not readily biodegradable; log10 BCF: 3.05; log10 biotransformation half-life (days): 0.83 |
| CCCCCC(C)(C)C | 133 | -113 | log10 biodegradation half-life (days): 0.778; log10 vapour pressure (mmHg): 1.03 |
| CC(Cl)C(C)Cl (configuration not stated) | 118 | -80 | log10 vapour pressure (mmHg): 1.39 |
| C=CCOC(=O)c1ccco1 | 208 |  |  |
| c1ccc(-c2nc3ccccc3[nH]2)cc1 |  | 293 |  |
| CC(=O)NC(C)=O | 224 | 79 | log10 vapour pressure (mmHg): -2 |
| CCC(C)COC(C)=O (configuration not stated) | 140 |  |  |
| CCOC(=O)C(C)(C)C(=O)OCC | 197 | -30.4 |  |
| Cl.N=C(N)N |  | 182 |  |
| C(=Nc1ccccc1)c1ccccc1 | 310 | 54 |  |
| CCCCc1ccccn1 | 192 | 97 |  |
| CCOC(=O)CCCCCCCC(=O)OCC | 292 | -18.5 |  |
| CC(=O)OC[C@H]1OC(OC(C)=O)[C@H](OC(C)=O)[C@@H](OC(C)=O)[C@@H]1OC(C)=O (some centres not stated) |  | 124 |  |

| Structure (SMILES) | boiling point [°C] | melting point [°C] | other results |
| --- | --- | --- | --- |
| CCOP(=S)(OCC)Oc1ncn(-c2ccccc2)n1 |  |  | log10 vapour pressure (mmHg): -5.54 |
| O=C(O)C=Cc1ccccc1F |  | 179 |  |
| O=C(OCC(=O)N1CCC[C@H]1C(=O)O)c1ccccc1 |  | 116 |  |
| CCCNc1ccccc1 | 222 |  |  |
| COP(=S)(OC)SCc1nc(N)nc(N)n1 |  | 165 | log10 vapour pressure (mmHg): -6.01; ready biodegradability: not readily biodegradable |
| C=CC(=O)NC(C)(C)CC(C)=O |  | 57.5 |  |
| Clc1cc(-c2c(Cl)c(Cl)c(Cl)c(Cl)c2Cl)cc(Cl)c1Cl |  |  | log10 biotransformation half-life (days): 2.65 |
| CCOC(=O)c1cc2ccccc2o1 | 276 | 30.5 |  |
| CN(C)c1ccc(C2(c3ccc(N(C)C)cc3)OC(=O)c3cc(N(C)C)ccc32)cc1 |  |  | ready biodegradability: not readily biodegradable |
| CCCCCCCc1ccccc1 | 240 | -48 | log10 vapour pressure (mmHg): -1.51 |
| O=C(O)c1cccc(O)c1O |  | 204 |  |
| CC(=O)N(CC(O)CO)c1c(I)c(C(=O)NCC(O)CO)c(I)c(C(=O)NCC(O)CO)c1I (configuration not stated) |  | 177 |  |
| O=C(O)C1=CCCCC1 | 241 | 38 |  |
| O=[N+]([O-])c1ccccc1 | 211 | 5.7 | log10 Henry constant (atm·m³/mol): -4.62; log10 Koc (L/kg): 1.94; log10 vapour pressure (mmHg): -0.611; ready biodegradability: not readily biodegradable; log10 BCF: 0.67; log10 biotransformation half-life (days): -0.93 |
| C=C(CC(C)(C)c1ccccc1)c1ccccc1 |  |  | ready biodegradability: not readily biodegradable |
| Cc1cccc(O)c1C | 217 | 72.8 | log10 Henry constant (atm·m³/mol): -6.13; log10 vapour pressure (mmHg): -1.05 |
| CCOP(=S)(OCC)Oc1cc(-c2ccccc2)on1 |  |  | log10 BCF: 2.61; log10 biotransformation half-life (days): 1.05 |
| CC(C)Oc1ccc(Nc2ccccc2)cc1 |  | 79 |  |
| CC(C)(C)S | 64 | -0.5 | log10 vapour pressure (mmHg): 2.26 |
| CCCC=CC=O |  |  | log10 Henry constant (atm·m³/mol): -4.31 |
| CO[C@H]1O[C@H](CNC(=O)N(CCCl)N=O)[C@@H](O)[C@H](O)[C@H]1O |  | 111 |  |
| CC(C)(C)C(=O)OCOC(=O)[C@@H]1N2C(=O)[C@@H](N=CN3CCCCCC3)[C@H]2SC1(C)C |  | 119 |  |
